The subject of data set [1] is Human epithelium cancer cells A431. Kind of data set: Evaluation of visibility of cell (fluorescent microscope). The conditions noted are these: A431 cells, labeling agent left one hour. The data set is classed as cell-based. The arrangement: key: P (Pass): Clear; F (Failure): Unclear. Here is the method: <Evaluation of Visibility of Cell>
Human epithelium cancer cells A431 were seeded in a 96-well plate (1×10^4 cells/well). The A431 were cultured for 24 hours using an RPMI 1640 medium to which 10% fetal bovine serum (FBS) and 1% penicillin-streptomycin had been added in an incubator (37° C., 5% CO2-containing Air, humidified environment).
After cultivation, the medium was removed, and the fluorescent labeling agents prepared in Examples 127 to 189 and Comparative Examples 25 to 37 were added thereto and left to stand in the incubator for one hour. Next, these were washed in the RPMI 1640 medium. The dark field images and fluorescent images of the cells were observed using a fluorescent microscope (manufactured by Keyence Corporation, BZ-X800) equipped with an excitation filter for an appropriate wavelength and a fluorescent filter and evaluated based on the following standards.
• P (Pass): Clear • F (Failure): Unclear
The evaluation results of the visibility of the cells labeled with the fluorescent labeling agents 1, 15, 19, 24, 25, 68, and 75 are sequentially shown in FIGS. 2 to 8 (magnification: 10 times, optical uptake time: 1 second).
The evaluation results of the visibility of the cells labeled with the fluorescent labeling agents 42 and 53 are sequentially shown in FIGS. 9 to 10 (magnification: 40 times, optical uptake time: 1 second).
From what has been described above, it has been clarified that the fluorescent labeling agent according to the embodiment of the present invention has excellent characteristics as a fluorescent labeling agent.

For another data set, the system named is phospholipids. As to the kind of experiment: Evaluation of property of fluorescent dye being accumulated in phospholipids (labeling agent intensity / dye solution intensity). It is filed as cell-based, Human. To be noted: A431 cells, one hour; relative value, comparative compound 12 regarded as one; fluorescent wavelength range as in Table 22 (780-800 nm, 630-650 nm in last line). Here is the method: <Evaluation of Property of Fluorescent Dye being Accumulated in Phospholipids>
The property of each dye being accumulated in phospholipids was calculated from the fluorescence intensity integral value obtained from the fluorescent spectrum of the dye solution and the fluorescence intensity obtained from the fluorescence intensity of the fluorescent labeling agent using an expression (1). The relative value of the property of each fluorescent labeling agent being accumulated in phospholipids when the property of the comparative compound 12 being accumulated in phospholipids was regarded as one was calculated and evaluated based on the following standards. In a case where the relative value is evaluated as 3 or more, it can be said that each fluorescent dye has a favorable property of being accumulated in phospholipids.
• 4: The property of being accumulated in phospholipids is 4 or more. • 3: The property of being accumulated in phospholipids is 2 or more and less than 4. • 2: The property of being accumulated in phospholipids is 1 or more and less than 2. • 1: The property of being accumulated in phospholipids is less than 1. Property of being accumulated in phospholipids=fluorescence intensity of fluorescent labeling agent/fluorescence intensity of dye solution (1)

For data set [2], the system named is Human epithelium cancer cells A431. As to the kind of experiment: Evaluation of cell toxicity of fluorescent labeling agent (cell counting kit-8, absorbance at 450 nm). The data set is classed as cell-based. To be noted: labeling agent left one hour, absorbance relative to DMSO medium solution regarded as one. Here is the method:
<Evaluation of Cell Toxicity of Fluorescent Labeling Agent>
Human epithelium cancer cells A431 were seeded in a 96-well plate (1×10^4 cells/well). Next, the A431 were cultured for 24 hours using an RPMI 1640 medium to which 10% fetal bovine serum (FBS) and 1% penicillin-streptomycin had been added in an incubator (37° C., 5% CO2-containing Air, humidified environment). As the RPMI 1640 medium, an RPMI-164-Medium manufactured by Sigma-Aldrich Inc. was used.
After cultivation, the medium was removed, the fluorescent labeling agents prepared in Examples 83 to 123 and Comparative Examples 25 to 37 and an RPMI 1640 medium containing 1% dimethyl sulfoxide (DMSO medium solution) were added thereto. These were left to stand in the incubator for one hour and then washed in the RPMI 1640 medium. 10 μL of a cell counting kit-8 (manufactured by Dojindo Laboratories.) was added to each well and left to stand in the incubator (37° C., 5% CO2-containing Air, humidified environment) for one hour. Next, the absorbance at 450 nm was measured using a plate reader (SPARK, manufactured by Tecan Trading AG).
The relative value of the absorbance of each fluorescent labeling agent when the absorbance of the well to which the DMSO medium solution had been added was regarded as one was calculated and evaluated based on the following standards. […] At the time of calculating the relative value of the absorbance of the fluorescent labeling agent, a value obtained by subtracting the absorbance before the addition of the cell counting kit-8 (manufactured by Dojindo Laboratories.) from the measured absorbance was used.
• P (Pass): 0.8 or more • F (Failure): Less than 0.8 <Evaluation of Fluorescence Intensity of Fluorescent Labeling Agent>

Data set [3] has the same test system. As to the kind of experiment: Evaluation of fluorescence intensity of fluorescent labeling agent in labeled cells (plate reader). It is filed as cell-based. To be noted: one hour, FIG. 1, compared with fluorescent labeling agents 68 and 75. Here is the method:
Human epithelium cancer cells A431 were seeded in a 96-well plate (1×10^4 cells/well). Next, the A431 were cultured for 24 hours using an RPMI 1640 medium to which 10% fetal bovine serum (FBS) and 1% penicillin-streptomycin had been added in an incubator (37° C., 5% CO2-containing Air, humidified environment).
After cultivation, the medium was removed, and the fluorescent labeling agents prepared in Examples 127 to 167 and Comparative Examples 25 to 37 were added thereto and left to stand in the incubator for one hour. Next, these were washed in the RPMI 1640 medium. The fluorescence intensities were evaluated in fluorescence wavelength ranges shown in Table 22 using the plate reader (SPARK, manufactured by Tecan Trading AG).

On to `CC[N+](CC)(CC)CCC[Si](C)(C)[O][Al]1[n]2c3c4cc(-c5ccccc5)ccc4c2N=C2N=C(N=c4c5cc(-c6ccccc6)ccc5c([n]41)=NC1=NC(=N3)c3ccc(-c4ccccc4)cc31)c1ccc(-c3ccccc3)cc12.[I-]` [Fluorescent dye 20], for which the Cell visibility result in data set [1] is recorded as “P”. Also, the “Property of being accumulated in phospholipids” value (shortened to “Property of being accumulated”) with phospholipids is 4 (4: The property of being accumulated in phospholipids is 4 or more.). For the same molecule, the Cell toxicity result in data set [2] is “P (P (Pass): 0.8 or more)”.

On to `CCOc1cccc2c1C1=NC2=Nc2c3c(OCC)cccc3c3[n]2[Al]([O]C(=O)CCN(C)C)[n]2c(c4cccc(OCC)c4c2=NC2=NC(=N3)c3c(OCC)cccc32)=N1` [Fluorescent dye 14], for which the Cell visibility entry in data set [1] is reported as “P”. For the same molecule, the “Property of being accumulated” value with phospholipids is reported as 4 (4: The property of being accumulated in phospholipids is 4 or more.). Moreover, the Cell toxicity entry in data set [2] is listed as “P (P (Pass): 0.8 or more)”.

As to `C[Si](C)(CCC[N+](c1ccccc1)(c1ccccc1)c1ccccc1)[O][Al]1[n]2c3c4cc(C5CCCCC5)c(C5CCCCC5)cc4c2N=C2N=C(N=c4c5cc(C6CCCCC6)c(C6CCCCC6)cc5c([n]41)=NC1=NC(=N3)c3cc(C4CCCCC4)c(C4CCCCC4)cc31)c1cc(C3CCCCC3)c(C3CCCCC3)cc12.[I-]` [Fluorescent dye 21], the Cell visibility result in data set [1] is given as “P”. Besides, the “Property of being accumulated” value in the data set with phospholipids is recorded as 4 (4: The property of being accumulated in phospholipids is 4 or more.). The Cell toxicity result in data set [2] was “P (P (Pass): 0.8 or more)”.

For the molecule `CCOc1cccc2c1C1=NC2=Nc2c3c(OCC)cccc3c3[n]2[Al]([O][Si](C)(C)CCCN)[n]2c(c4cccc(OCC)c4c2=NC2=NC(=N3)c3c(OCC)cccc32)=N1` [Fluorescent dye 1], the “fluorescence intensity of fluorescent labeling agent” value in data set [3] is given as “high fluorescence intensities”. In addition, the Cell visibility result in data set [1] is on record as “P”. The “Property of being accumulated” value with phospholipids was 4 (4: The property of being accumulated in phospholipids is 4 or more.). The Cell toxicity result in data set [2] is “P (P (Pass): 0.8 or more)”.

Regarding `O=C(O)C(F)(F)C(F)(F)C(=O)NCCc1ccc(S(=O)(=O)[O][Al]2[n]3c4c5cc(C(F)(F)F)ccc5c3N=C3N=C(N=c5c6cc(C(F)(F)F)ccc6c([n]52)=NC2=NC(=N4)c4ccc(C(F)(F)F)cc42)c2ccc(C(F)(F)F)cc23)cc1` [Fluorescent dye 27], the Cell visibility result in data set [1] is given as “P”. Besides, the “Property of being accumulated” value in the data set with phospholipids is recorded as 4 (4: The property of being accumulated in phospholipids is 4 or more.). In addition, the Cell toxicity result in data set [2] is on record as “P (P (Pass): 0.8 or more)”.

Regarding `CCOc1cccc2c1C1=NC2=Nc2c3c(OCC)cccc3c3[n]2[Al]([O]P(=O)(O)CCC(=O)O)[n]2c(c4cccc(OCC)c4c2=NC2=NC(=N3)c3c(OCC)cccc32)=N1` [Fluorescent dye 17], the Cell visibility result in data set [1] is on record as “P”. Also, in the data set with phospholipids, the “Property of being accumulated” value is 4 (4: The property of being accumulated in phospholipids is 4 or more.). In addition, the Cell toxicity entry in data set [2] is on record as “P (P (Pass): 0.8 or more)”.

On to `CCCCCCCCCCCCCCCCCCc1ccc2c(c1)C1=NC2=Nc2c3cc(CCCCCCCCCCCCCCCCCC)ccc3c3[n]2[Al]([O]S(=O)(=O)c2ccc(CCNC(=O)C(CC(=O)O)OC(C)=O)cc2)[n]2c(c4ccc(CCCCCCCCCCCCCCCCCC)cc4c2=NC2=NC(=N3)c3cc(CCCCCCCCCCCCCCCCCC)ccc32)=N1` (centres unmarked) [Fluorescent dye 28], for which the Cell visibility result in data set [1] was “P”. In addition, the “Property of being accumulated” value with phospholipids is on record as 4 (4: The property of being accumulated in phospholipids is 4 or more.). The Cell toxicity entry in data set [2] is recorded as “P (P (Pass): 0.8 or more)”.

In the case of `CCOc1cccc2c1C1=NC2=Nc2c3c(OCC)cccc3c3n2[Si](O)(OP(=O)(CCC(=O)O)c2ccccc2)n2c(c4cccc(OCC)c4c2=NC2=NC(=N3)c3c(OCC)cccc32)=N1` (centres unmarked) [Fluorescent dye 16], the Cell visibility entry in data set [1] was “P”. Besides, the “Property of being accumulated” value in the data set on phospholipids is given as 4 (4: The property of being accumulated in phospholipids is 4 or more.). In addition, the Cell toxicity result in data set [2] is given as “P (P (Pass): 0.8 or more)”.

As for `CCOc1cccc2c1C1=NC2=Nc2c3c(OCC)cccc3c3[n]2[Al]([O]P(=O)(CCC(=O)O)c2ccccc2)[n]2c(c4cccc(OCC)c4c2=NC2=NC(=N3)c3c(OCC)cccc32)=N1` (centres unmarked) [Fluorescent dye 15], the “fluorescence intensity of fluorescent labeling agent” value in data set [3] is “high fluorescence intensities”. For the same molecule, the Cell visibility result in data set [1] is listed as “P”. The “Property of being accumulated” value with phospholipids was 4 (4: The property of being accumulated in phospholipids is 4 or more.). In addition, the Cell toxicity entry in data set [2] is given as “P (P (Pass): 0.8 or more)”.

With `CCOc1cccc2c1C1=NC2=Nc2c3c(OCC)cccc3c3[n]2[Al]([O]P(=O)(CCC(=O)O)Oc2ccccc2)[n]2c(c4cccc(OCC)c4c2=NC2=NC(=N3)c3c(OCC)cccc32)=N1` (centres unmarked) [Fluorescent dye 18], the Cell visibility entry in data set [1] is recorded as “P”. The “Property of being accumulated” value with phospholipids is given as 4 (4: The property of being accumulated in phospholipids is 4 or more.). In addition, the Cell toxicity entry in data set [2] was “P (P (Pass): 0.8 or more)”.

These data come from patent publication US12692396B2, “Fluorescent labeling agent and fluorescent dye” (artience Co., Ltd., priority 2020, dated 2026).
